The source of these data is PubChem BioAssay (NCI).

Test systems include HOP-62 NSCLC; EKVX NSCLC; MOLT-4 leukemia; UACC-62 melanoma; OVCAR-5 ovarian; SF-295 CNS; RXF 393 renal; OVCAR-3 ovarian; UACC-257 melanoma; IGROV1 ovarian.
What all share (assay): NCI-60 cell line screen, 48 h

Structures are written as SMILES.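 48-hour exposure; five concentrations; linearly interpolated endpoints. Here, GI50 denotes the concentration required for 50% inhibition of growth. TGI: total growth inhibition.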

Consider `COc1cc([N+](=O)[O-])c2ncccc2c1[N+](=O)[O-]`, for which the GI50 in the assay on HOP-62 NSCLC was 11.7 µM; in the assay on EKVX NSCLC, 15.4 µM; with MOLT-4 leukemia, 4.92 µM; with UACC-62 melanoma it was 12 µM; in the assay on OVCAR-5 ovarian it was 16.4 µM; in the assay on SF-295 CNS, 4.51 µM. The values for the GI50 with RXF 393 renal, in the assay with OVCAR-3 ovarian and in the assay with UACC-257 melanoma were 4.37 µM, 2.68 µM and 13.5 µM, respectively. Moreover, the TGI with HOP-62 NSCLC is 24.8 µM; in the assay with EKVX NSCLC, 29.4 µM; with MOLT-4 leukemia, > 100 µM; in the assay on UACC-62 melanoma, 25.1 µM; in the assay with OVCAR-5 ovarian, 31.1 µM; with SF-295 CNS, 14.3 µM. The TGI in the assay with RXF 393 renal is 17.5 µM; in the assay with OVCAR-3 ovarian, 6.72 µM; in the assay on UACC-257 melanoma it was 31.2 µM.
With `CNC(=O)CN(CC(N)=O)C(N)=O`, the TGI with HOP-62 NSCLC, in the assay on IGROV1 ovarian, with EKVX NSCLC, in the assay with MOLT-4 leukemia, in the assay with UACC-62 melanoma and with OVCAR-5 ovarian was > 100 µM in each case. Moreover, the TGI in the assay on SF-295 CNS, with RXF 393 renal and in the assay with OVCAR-3 ovarian was > 100 µM throughout.
Turning to `N=C1C=C(N)C(=O)c2[nH]c(=O)ccc21`, the TGI with HOP-62 NSCLC worked out at 3.59 µM; with IGROV1 ovarian it was 3.39 µM; in the assay on EKVX NSCLC it was 3.55 µM; in the assay on UACC-62 melanoma, 4.61 µM; in the assay with OVCAR-5 ovarian, 4.78 µM; in the assay with SF-295 CNS it was 31.2 µM. In addition, the TGI in the assay on RXF 393 renal amounted to 3.29 µM; with OVCAR-3 ovarian it was 2.96 µM; in the assay on UACC-257 melanoma, 16.6 µM.
As to `Nc1[nH]c(=O)ncc1CO`, the GI50 in the assay with HOP-62 NSCLC, with IGROV1 ovarian, in the assay on MOLT-4 leukemia, with UACC-62 melanoma, with OVCAR-5 ovarian and in the assay with SF-295 CNS was > 100 µM throughout. The GI50 in the assay with RXF 393 renal, in the assay with OVCAR-3 ovarian and in the assay on UACC-257 melanoma was > 100 µM throughout. The TGI in the assay with HOP-62 NSCLC, in the assay with IGROV1 ovarian, in the assay on MOLT-4 leukemia, with UACC-62 melanoma, in the assay on OVCAR-5 ovarian and in the assay on SF-295 CNS was > 100 µM in each case. Besides, the TGI in the assay on RXF 393 renal, with OVCAR-3 ovarian and with UACC-257 melanoma was > 100 µM each time.
Take `COc1ccc(C(O)CC(O)(C(F)(F)F)C(F)(F)F)cc1` (stereo not drawn): the TGI in the assay on HOP-62 NSCLC was > 100 µM; with IGROV1 ovarian it was 84.4 µM; with EKVX NSCLC it was > 100 µM; in the assay on MOLT-4 leukemia it was > 100 µM; with UACC-62 melanoma, 87.4 µM; in the assay with OVCAR-5 ovarian, 83.9 µM. The TGI in the assay on SF-295 CNS was found to be 75.7 µM; in the assay on RXF 393 renal it was 62 µM; in the assay with OVCAR-3 ovarian, 69.8 µM; with UACC-257 melanoma, 51.8 µM.
`COc1ccc(OC)c2c3c(ccc12)C(c1ccccc1)OC3=O` (stereo not drawn): the TGI in the assay with HOP-62 NSCLC is > 100 µM; in the assay on IGROV1 ovarian it was > 100 µM; with EKVX NSCLC, > 100 µM; in the assay on MOLT-4 leukemia, 99.7 µM; in the assay on UACC-62 melanoma, > 100 µM; in the assay on OVCAR-5 ovarian it was > 100 µM. Moreover, the TGI is > 100 µM in the assay on SF-295 CNS, > 100 µM in the assay with RXF 393 renal, 79.9 µM in the assay on OVCAR-3 ovarian and > 100 µM in the assay on UACC-257 melanoma.
As to `COC(OC)c1cc2c(cc1C(=O)[C@@]13CCC[C@@H]1NC(=O)O3)OCO2`, the TGI in the assay on HOP-62 NSCLC, in the assay on IGROV1 ovarian, in the assay with EKVX NSCLC, with MOLT-4 leukemia, in the assay with UACC-62 melanoma and in the assay on OVCAR-5 ovarian was > 100 µM each time. Moreover, the TGI with SF-295 CNS, in the assay with RXF 393 renal, with OVCAR-3 ovarian and with UACC-257 melanoma was > 100 µM throughout.
On to `Cc1nc(N)nc2ccccc12`, for which the TGI with HOP-62 NSCLC, in the assay with IGROV1 ovarian, in the assay on EKVX NSCLC, with MOLT-4 leukemia, in the assay on UACC-62 melanoma and in the assay with OVCAR-5 ovarian was > 100 µM throughout. In addition, the TGI with SF-295 CNS, in the assay with RXF 393 renal, in the assay on OVCAR-3 ovarian and in the assay with UACC-257 melanoma was > 100 µM throughout.
`CC(NC(=O)c1ccccc1)(C(=O)O)C(=O)O`: the TGI with HOP-62 NSCLC, in the assay on IGROV1 ovarian, in the assay with EKVX NSCLC, with MOLT-4 leukemia, with UACC-62 melanoma and in the assay on OVCAR-5 ovarian was > 100 µM throughout. Moreover, the TGI with SF-295 CNS, in the assay on RXF 393 renal, in the assay with OVCAR-3 ovarian and in the assay on UACC-257 melanoma was > 100 µM throughout.
As to `C=[CH][Sn]([CH]=C)([O]c1cccc2cccnc12)[O]c1cccc2cccnc12`, the GI50 in the assay on HOP-62 NSCLC is 10.7 µM; with IGROV1 ovarian, 3.31 µM; with EKVX NSCLC, 5.58 µM; in the assay on MOLT-4 leukemia, 1.42 µM; in the assay with UACC-62 melanoma it was 0.964 µM; with OVCAR-5 ovarian, 5.16 µM. For the same compound, the GI50 is 5.27 µM in the assay with SF-295 CNS, 0.28 µM with RXF 393 renal, 2.53 µM with OVCAR-3 ovarian and 2.36 µM in the assay on UACC-257 melanoma. Further, the TGI in the assay with HOP-62 NSCLC worked out at 32.8 µM; with IGROV1 ovarian, 11 µM; in the assay on EKVX NSCLC it was 17.2 µM; in the assay with MOLT-4 leukemia it was 11.1 µM; in the assay with UACC-62 melanoma it was 2.5 µM; with OVCAR-5 ovarian, 13.8 µM. Moreover, the TGI in the assay on SF-295 CNS is 19.4 µM; in the assay with RXF 393 renal, 1.21 µM; in the assay with OVCAR-3 ovarian it was 10 µM; with UACC-257 melanoma it was 7.66 µM.
For the compound `CCOc1ccc(C(CN2CCOCC2)C(C)=O)cc1OC` (stereo not drawn), the TGI with HOP-62 NSCLC was 40.4 µM; with IGROV1 ovarian, 49.6 µM; in the assay with EKVX NSCLC, 50.3 µM; with MOLT-4 leukemia, > 100 µM; with UACC-62 melanoma, 32.8 µM; in the assay on OVCAR-5 ovarian, 33.2 µM. Besides, the TGI with SF-295 CNS was > 100 µM; in the assay on RXF 393 renal, 41.1 µM; in the assay with UACC-257 melanoma, 45.8 µM.
